Test results published in article PMC6270976, “Pharmacokinetic Study in Mice of Galphimine-A, an Anxiolytic Compound from Galphimia glauca” (Molecules, 2014).
“Also recorded” adds a separate entry of the source. Read-outs that look alike come from different tables or passages of the source.

What was measured:
[1] = Stability of G–A in mouse brain tissue homogenate under handling conditions; format: in vitro ADME; details: for Observed Concentration ± S.D.: n = 6
Experimental: (§1) The stability of G–A in mice plasma and brain was assessed by analyzing replicates (n = 6) of QC samples at concentrations of 0.8, 4.0 and 10 μg/mL for mice plasma and brain. The investigation covered expected conditions during all of the sample storage and process periods, which included the stability data from freeze/thaw, bench-top, autosampler and long–term stability test. For all stability studies, freshly prepared and stability testing QC samples were evaluated by using freshly prepared standard curves for the measurement. The concentrations obtained from all stability studies were compared with the freshly prepared QC samples, and the percentage concentration deviation was calculated. The analytes were considered stable in mouse plasma and brain when the concentration difference between the freshly prepared samples and the stability samples was less than 15%.

[2] = Stability of G–A in mouse plasma under handling conditions; format: in vitro ADME; details: for Observed Concentration ± S.D.: n = 6
Experimental: as §1

[3] = cited from earlier work
[4] = Plasma pharmacokinetics of G–A after a single oral dose in ICR mice (HPLC, PKSolver); format: in vivo; design: t1/2ka (absorption half time): unit not given here; details: for AUC(0-inf) / Cmax / Tmax / AUC(0-t) / CL/F / MRT / Vd/F / k el: ICR, po, 200 mg/kg; for AUC(0-t): read-out: AUC0-1440 min (converted); for CL/F: read-out: CL/F (apparent clearance); for MRT: read-out: MRT (mean residence time) (converted); for Vd/F: read-out: V/F (apparent volume of distribution)
Experimental: Eighty-eight mice were randomly divided into 11 groups with eight individuals each. All animals were orally administered with 200 mg/kg of G–A dissolved in 5% β-cyclodextrin solution. Under ether-induced anesthesia, blood samples were obtained from the retroorbital sinus with heparinized cannula at different times (0, 5, 10, 15, 30, 60, 120, 240, 480, 720, and 1,440 min) after G–A administration. The volume of the blood samples was of 700 to 1000 microliters, which were collected in heparinized centrifuge microtubes, after the blood was centrifuged for 5 min at 1,720 × g.
Plasma samples were frozen at −70 °C, and lyophilized after. The obtained dry product was used to extract and measure the amount of G–A. After obtaining blood samples, all animals were perfused with isotonic saline solution (ISS) via cardiac puncture; the femoral vein was used to eliminate the perfusion liquid, until it appeared clear. Subsequently, the brain was removed. The brains were weighed fresh and frozen at −70 °C and then lyophilized. Once dry, the brains were weighed again to determine the volume of water contained in each brain. Dry tissue was ground in a mortar, and G–A was later extracted.
Dry pulverized samples (plasma and brain) were extracted with methanol (HPLC grade, Merck). The extracts were filtered with a 0.45 μm, 13 mm Teflon membrane (Millex®-LCR), and 20 μL of filtrate were injected into the HPLC equipment. Measurements were performed in a Waters 2695 HPLC, with diode array detector (Waters 2996) and the Empower Pro 1.0 software. A Chromolith Performance® RP-18e 100 × 4.6 mm (Merck KGaA Darmstadt, Germany) was used. The mobile phase consisted of a mixture of acetonitrile:water (55:45, 1 mL/min). G–A concentration was obtained by comparison with a pre-built calibration curve at λ = 220 nm.
To evaluate the suitability of the assay for pharmacokinetic studies, 200 mg/kg of G–A was orally administered to mice. Eight animals were used in each group different times (0, 5, 10, 15, 30, 60, 120, 240, 480, 720, and 1440 min). Pharmacokinetic calculations were performed using the observed data. All data were subsequently processed using PKSolver add-in program for Microsoft Excel written in Visual Basic for Applications. […]
The pharmacokinetic model selection either one or two-comparment, were used both the Akaike information criterion (AIC) and Schwarz criterion (SC). Using the criteria, one may select the model with which to reach a lower value of AIC or SC, which means that the chosen model is more parsimonious (less parameters required) and best fits the data (low error prediction).

[5] = brain tissue, 3 Freeze/thaw cycles (−70 °C), nominal 0.80 μg/mL
[6] = brain tissue, 3 Freeze/thaw cycles (−70 °C), nominal 4.00 μg/mL
[7] = brain tissue, 3 Freeze/thaw cycles (−70 °C), nominal 10.0 μg/mL
[8] = brain tissue, Autosampler stability (4 °C; 8 h), nominal 0.80 μg/mL
[9] = brain tissue, Autosampler stability (4 °C; 8 h), nominal 4.00 μg/mL
[10] = brain tissue, Autosampler stability (4 °C; 8 h), nominal 10.0 μg/mL
[11] = brain tissue, Long–term stability (−70 °C; 1 month), nominal 0.80 μg/mL
[12] = brain tissue, Long–term stability (−70 °C; 1 month), nominal 4.00 μg/mL
[13] = brain tissue, Long–term stability (−70 °C; 1 month), nominal 10.0 μg/mL
[14] = plasma, 3 Freeze/thaw cycles (−70 °C), nominal 0.80 μg/mL
[15] = plasma, 3 Freeze/thaw cycles (−70 °C), nominal 4.00 μg/mL
[16] = plasma, 3 Freeze/thaw cycles (−70 °C), nominal 10.0 μg/mL
[17] = plasma, Autosampler stability (4 °C; 8 h), nominal 0.80 μg/mL
[18] = plasma, Autosampler stability (4 °C; 8 h), nominal 4.00 μg/mL
[19] = plasma, Long–term stability (−70 °C; 1 month), nominal 0.80 μg/mL
[20] = plasma, Long–term stability (−70 °C; 1 month), nominal 4.00 μg/mL
[21] = plasma, Long–term stability (−70 °C; 1 month), nominal 10.0 μg/mL
[22] = mouse, plasma, one-compartment model, oral 200 mg/kg
[23] = mouse, plasma, plasma, one-compartment model, oral 200 mg/kg
[24] = mouse, plasma, plasma, two-compartment model, oral 200 mg/kg
[25] = mouse, plasma, two-compartment model, oral 200 mg/kg
[26] = plasma, one-compartment model, oral 200 mg/kg
[27] = plasma, two-compartment model, oral 200 mg/kg

Time analyzable in the autosampler tray with acceptable precision and accuracy ([1]; brain tissue samples, 4 °C): over 8 h
Long-term storage stability (time stable) ([1]; brain tissue samples, −70 °C): over 1 month
Accuracy Bias [1, 5]: 3.75%
Observed Concentration ± S.D. [1, 5]: 0.83 ± 0.08 µg/mL
Accuracy Bias [1, 6]: 9.00%
Observed Concentration ± S.D. [1, 6]: 4.36 ± 0.34 µg/mL
Accuracy Bias [1, 7]: 3.60%
Observed Concentration ± S.D. [1, 7]: 10.36 ± 0.52 µg/mL
Accuracy Bias [1, 8]: 8.75%
Observed Concentration ± S.D. [1, 8]: 0.87 ± 0.11 µg/mL
Accuracy Bias [1, 9]: −10.0%
Observed Concentration ± S.D. [1, 9]: 3.60 ± 0.33 µg/mL
Accuracy Bias [1, 10]: −1.70%
Observed Concentration ± S.D. [1, 10]: 9.83 ± 0.43 µg/mL
Accuracy Bias [1, 11]: −10.00%
Observed Concentration ± S.D. [1, 11]: 0.72 ± 0.10 µg/mL
Accuracy Bias [1, 12]: −6.75%
Observed Concentration ± S.D. [1, 12]: 3.73 ± 0.41 µg/mL
Accuracy Bias [1, 13]: 4.30%
Observed Concentration ± S.D. [1, 13]: 10.43 ± 0.98 µg/mL
Freeze/thaw stability ([1]; brain tissue, three cycles, stored at −70 °C and thawed to room temperature): stable
Time analyzable in the autosampler tray with acceptable precision and accuracy ([2]; plasma samples, 4 °C): over 8 h
Long-term storage stability (time stable) ([2]; plasma samples, −70 °C): over 1 month
Accuracy Bias [2, 14]: −1.00%
Observed Concentration ± S.D. [2, 14]: 0.79 ± 0.08 µg/mL
Accuracy Bias [2, 15]: 0.25%
Observed Concentration ± S.D. [2, 15]: 4.01 ± 0.14 µg/mL
Accuracy Bias [2, 16]: −0.70%
Observed Concentration ± S.D. [2, 16]: 9.93 ± 0.67 µg/mL
Accuracy Bias [2, 17]: 3.75%
Observed Concentration ± S.D. [2, 17]: 0.83 ± 0.05 µg/mL
Accuracy Bias [2, 18]: −1.75%
Observed Concentration ± S.D. [2, 18]: 3.93 ± 0.43 µg/mL
Observed Concentration ± S.D. ([2]; plasma, Autosampler stability (4 °C; 8 h), nominal 10.0 μg/mL): 10.10 ± 0.85 µg/mL
Accuracy Bias [2, 19]: −3.00%
Observed Concentration ± S.D. [2, 19]: 0.77 ± 0.06 µg/mL
Accuracy Bias [2, 20]: 6.50%
Observed Concentration ± S.D. [2, 20]: 4.26 ± 0.31 µg/mL
Accuracy Bias [2, 21]: −5.70%
Observed Concentration ± S.D. [2, 21]: 9.43 ± 0.83 µg/mL
Freeze/thaw stability ([2]; plasma, three cycles, stored at −70 °C and thawed to room temperature): stable
G–A Concentration Plasma ([4]; 5 min after single oral 200 mg/kg, mean ± S.E.M., n = 8, 200 mg/kg): 2.47 ± 0.43 µg/mL
AUC(0-inf) [4, 22]: 36200 ng·h/mL
Cmax [4, 22]: 3330 ng/mL
Tmax [4, 22]: 0.436 h
AUC(0-t) [4, 23]: 32500 ng·h/mL
CL/F [4, 23]: 92 mL/min/kg
MRT [4, 23]: 10.5 h
Vd/F [4, 23]: 57.6 L/kg
k el ([4]; mouse, plasma, plasma, one-compartment model, oral 200 mg/kg, read-out: k10 (apparent first-order elimination rate constant) (converted)): 2.67e-05 s⁻¹
k el ([4]; mouse, plasma, plasma, one-compartment model, oral 200 mg/kg, read-out: k10 (elimination rate constant) (converted)): 2.67e-05 s⁻¹
AUC(0-t) [4, 24]: 30400 ng·h/mL
CL/F [4, 24]: 98 mL/min/kg
MRT [4, 24]: 10.3 h
Vd/F [4, 24]: 55.5 L/kg
k el ([4]; mouse, plasma, plasma, two-compartment model, oral 200 mg/kg, read-out: k10 (apparent first-order elimination rate constant) (converted)): 2.83e-05 s⁻¹
k el ([4]; mouse, plasma, plasma, two-compartment model, oral 200 mg/kg, read-out: k10 (elimination rate constant) (converted)): 2.83e-05 s⁻¹
AUC(0-inf) [4, 25]: 33800 ng·h/mL
Cmax [4, 25]: 3420 ng/mL
Tmax [4, 25]: 0.456 h
concentration at 5 min ([4]; mouse, plasma, 5 min after single oral 200 mg/kg, mean ± S.E.M., n = 8): 2470 ng/mL
concentration at 10 min ([4]; mouse, plasma, 10 min after single oral 200 mg/kg, mean ± S.E.M., n = 8): 2570 ± 520 ng/mL
concentration at 15 min ([4]; mouse, plasma, 15 min after single oral 200 mg/kg, mean ± S.E.M., n = 8): 2790 ± 790 ng/mL
concentration at 30 min ([4]; mouse, plasma, 30 min after single oral 200 mg/kg, mean ± S.E.M., n = 8): 3700 ± 700 ng/mL
concentration at 60 min ([4]; mouse, plasma, 60 min after single oral 200 mg/kg, mean ± S.E.M., n = 8): 3440 ± 350 ng/mL
concentration at 120 min ([4]; mouse, plasma, 120 min after single oral 200 mg/kg, mean ± S.E.M., n = 8): 2950 ± 430 ng/mL
concentration at 240 min ([4]; mouse, plasma, 240 min after single oral 200 mg/kg, mean ± S.E.M., n = 8): 2330 ± 420 ng/mL
concentration at 480 min ([4]; mouse, plasma, 480 min after single oral 200 mg/kg, mean ± S.E.M., n = 8): 1440 ± 370 ng/mL
concentration at 720 min ([4]; mouse, plasma, 720 min after single oral 200 mg/kg, mean ± S.E.M., n = 8): 960 ± 210 ng/mL
concentration at 1440 min ([4]; mouse, plasma, 1440 min after single oral 200 mg/kg, mean ± S.E.M., n = 8): 310 ± 20 ng/mL
Plasma area under the G–A concentration time curve ([4]; one-compartment model, oral 200 mg/kg): 2,170 μg·min·mL^−1
Time to detection in plasma after oral administration ([4]; oral 200 mg/kg): ≤ 5 min
A (G–A plasma concentration in central compartment) [4, 26]: 3.50 µg/mL
ka (apparent first-order absorption rate constant) [4, 26]: 0.182 min⁻¹
t1/2ka (absorption half time) [4, 26]: 3.79
A (G–A plasma concentration in central compartment) [4, 27]: 1.83 µg/mL
B (G–A plasma concentration in peripheral compartment) [4, 27]: 1.82 µg/mL
k12 (transfer rate constant central to peripheral compartment) [4, 27]: 0.00017 min⁻¹
k21 (transfer rate constant peripheral to central compartment) [4, 27]: 0.00195 min⁻¹
ka (apparent first-order absorption rate constant) [4, 27]: 0.164 min⁻¹
t1/2ka (absorption half time) [4, 27]: 4.22
α [4, 27]: 0.0025 min⁻¹
β [4, 27]: 0.0014 min⁻¹
Plasma area under the G–A concentration time curve ([4]; two-compartment model, oral 200 mg/kg): 2,030 μg·min·mL^−1
Structure (SMILES): COC(=O)[C@@]12CC[C@]3(C)C([C@H](O)[C@H](O)[C@@]4([C@@H](C)O)COC(=O)C=C[C@H]43)[C@@]1(C)CC[C@@]1(C)CC=C(C)C[C@]12O (some centres unmarked) [G–A, galphimine-A]
Anxiolytic effect ([3]; 15 mg/kg dose administered intraperitoneally): anxiolytic effects
Anxiolytic activity ([3]; among the galphimines): most active; also recorded: highest anxiolytic activity
